Source: patent publication US11118162B2, “Cytopheresis cartridges and use thereof” (SeaStar Medical, Inc., priority 2010, dated 2021)

Key:
[1] = tested on: leukocytes in porcine blood; assay: Microscopic flow chamber: leukocyte interaction with polysulfone SCD membrane; format: cell-based, pig
Source text: A custom microscopic flow chamber system was set up to enable microscopic analysis of leukocyte interaction with the SCD membrane. The flow chamber consisted of a polycarbonate housing with an inlet and outlet for perfusion. A polysulfone membrane was affixed to the polycarbonate block with a gasket which directed shear flow. The thickness of the gasket (100 μm) along with the length (2 cm) and the width of the channel (1.5 mm) determined the volume of the flow chamber. Microscopic imaging was accomplished through an optical window made up of a cover glass affixed to the bottom of the polycarbonate block. Either isolated blood or purified leukocytes were used for this study.
Isolated blood was prone to activation from excessive handling. […] Blood passed through the flow chamber at a rate of 20 μL/min with calculated shear forces between 1-10 dynes/cm^2. […]
Microscopic analysis of cell capture events was accomplished using either a Zeiss Axiovert 200M or Axio-Observer epifluorescence microscope equipped with a microscope stage-top incubator to control environmental temperature and CO2 content. Fluorescence images were acquired with either a Zeiss MRm3 or an Icc1 camera at a frequency of 1 frame/second for 5 minutes, for analysis of leukocyte/membrane interaction, and at 1 frame/minute for 1 hour sequences, for analysis of long term leukocyte attachment. […]

[2] = tested on: leukocytes in human whole blood; assay: In vitro leukocyte activation in heparinized human whole blood; format: cell-based; conditions: for Lactoferrin: n = 4; for Elastase: n = 5
Protocol: Heparinized human whole blood was added to tubes with or without lipopolysaccharide (LPS) (10 μg/mL) or formyl-Methionyl-Leucyl-Phenylalanine (fMLF, 50 nM). […] The release of IL-6, IL-8, or IL-10 was measured using commercially available ELISA kits from R&D Systems. The release of elastase was measured using a commercially available ELISA kit from Bender MedSystems. The release of lactoferrin was measured using a commercially available ELISA kit from EMD Chemicals. […] Samples were incubated for various times at 37° C. and 5% CO2. CD11b activation was measured using an FITC-conjugated mouse anti-human antibody (AbD Serotech) and evaluated on an Accuri C6 flow cytometer.

Compound	Persistent leukocyte adhesion events ([1]; 1 hour sequences, LPS and citrate versus LPS only)	Rolling events ([1]; LPS and citrate treated blood)	Lactoferrin ([2]; Baseline) [mg/mL]	Elastase ([2]; Baseline) [mg/mL]	Lactoferrin ([2]; Stimulated (LPS, fMLF)) [mg/mL]	Elastase ([2]; Stimulated (LPS, fMLF)) [mg/mL]
O=C(O)CC(O)(CC(=O)O)C(=O)O [Citrate]	far fewer	observed increase	–	–	–	–
heparin	–	–	8.47	2.73	12.42	4.52
